The source made the active and inactive calls. Cut-off read from the data, not from the text of the source, for most assays here: actives have a measured Kd and inactives only a lower limit.
Legend:
[1] = target: Casein kinase I isoform alpha (Homo sapiens, UniProt P48729)
[2] = target: Mitogen-activated protein kinase 3 (Homo sapiens, UniProt P27361)
[3] = target: Tyrosine-protein kinase BTK (Homo sapiens, UniProt Q06187)
[4] = target: T1, Phosphatidylinositol 5-phosphate 4-kinase type-2 gamma (Homo sapiens, UniProt Q8TBX8)
T1 sequence (Q8TBX8 whole entry): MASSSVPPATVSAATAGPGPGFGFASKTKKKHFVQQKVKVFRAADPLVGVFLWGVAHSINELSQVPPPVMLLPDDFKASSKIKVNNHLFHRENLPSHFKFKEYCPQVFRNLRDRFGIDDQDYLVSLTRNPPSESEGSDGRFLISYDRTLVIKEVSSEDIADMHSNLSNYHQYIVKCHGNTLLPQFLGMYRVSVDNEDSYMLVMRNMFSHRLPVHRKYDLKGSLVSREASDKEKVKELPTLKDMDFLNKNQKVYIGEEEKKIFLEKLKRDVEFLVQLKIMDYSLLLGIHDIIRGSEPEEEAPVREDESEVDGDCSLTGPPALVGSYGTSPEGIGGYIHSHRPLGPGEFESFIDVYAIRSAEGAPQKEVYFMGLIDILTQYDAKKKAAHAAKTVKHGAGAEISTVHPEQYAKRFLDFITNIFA

[5] = target: Tyrosine-protein kinase CSK (Homo sapiens, UniProt P41240)
[6] = target: T2, General transcription and DNA repair factor IIH helicase subunit XPD (Homo sapiens, UniProt P18074); details: read-out: Kd apparent; k-562, colo 205, sk-n-be(2) and mv-4-11
T2 sequence (P18074 whole entry): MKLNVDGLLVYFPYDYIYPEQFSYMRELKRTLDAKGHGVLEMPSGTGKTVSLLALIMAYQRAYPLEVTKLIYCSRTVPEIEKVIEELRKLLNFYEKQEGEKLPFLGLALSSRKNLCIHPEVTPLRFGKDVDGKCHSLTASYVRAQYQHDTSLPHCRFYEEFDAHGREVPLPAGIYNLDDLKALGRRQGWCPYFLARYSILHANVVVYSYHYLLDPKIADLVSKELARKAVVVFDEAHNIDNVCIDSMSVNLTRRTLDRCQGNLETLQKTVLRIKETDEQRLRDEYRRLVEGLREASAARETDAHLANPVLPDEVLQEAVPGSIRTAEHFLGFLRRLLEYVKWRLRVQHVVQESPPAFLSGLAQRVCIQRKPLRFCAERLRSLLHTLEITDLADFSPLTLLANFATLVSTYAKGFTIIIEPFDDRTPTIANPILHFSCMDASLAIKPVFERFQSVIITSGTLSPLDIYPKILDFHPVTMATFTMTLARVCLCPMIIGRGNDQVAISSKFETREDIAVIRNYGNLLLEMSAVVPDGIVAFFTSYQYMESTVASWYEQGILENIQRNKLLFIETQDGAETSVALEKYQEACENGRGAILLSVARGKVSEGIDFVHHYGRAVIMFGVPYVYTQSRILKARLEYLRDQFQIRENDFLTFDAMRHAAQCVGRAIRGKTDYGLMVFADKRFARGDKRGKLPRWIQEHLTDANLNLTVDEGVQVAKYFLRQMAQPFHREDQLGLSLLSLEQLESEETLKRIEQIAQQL

[7] = target: Ephrin type-A receptor 2 (Homo sapiens, UniProt P29317)
[8] = target: T3, Rab-like protein 3 (Homo sapiens, UniProt Q5HYI8)
T3 sequence (Q5HYI8 whole entry): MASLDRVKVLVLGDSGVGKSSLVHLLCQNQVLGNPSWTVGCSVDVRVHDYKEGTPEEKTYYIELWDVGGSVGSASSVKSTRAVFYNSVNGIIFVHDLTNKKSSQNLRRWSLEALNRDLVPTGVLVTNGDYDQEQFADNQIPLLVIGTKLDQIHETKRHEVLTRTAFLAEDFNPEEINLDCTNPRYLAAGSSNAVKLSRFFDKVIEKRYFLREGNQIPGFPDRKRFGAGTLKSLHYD

[9] = target: Protein kinase C beta type (Homo sapiens, UniProt P05771)
[10] = target: Cyclin-dependent kinase 13 (Homo sapiens, UniProt Q14004)
[11] = target: T4, Non-receptor tyrosine-protein kinase TNK1 (Homo sapiens, UniProt Q13470)
T4 sequence (Q13470 whole entry): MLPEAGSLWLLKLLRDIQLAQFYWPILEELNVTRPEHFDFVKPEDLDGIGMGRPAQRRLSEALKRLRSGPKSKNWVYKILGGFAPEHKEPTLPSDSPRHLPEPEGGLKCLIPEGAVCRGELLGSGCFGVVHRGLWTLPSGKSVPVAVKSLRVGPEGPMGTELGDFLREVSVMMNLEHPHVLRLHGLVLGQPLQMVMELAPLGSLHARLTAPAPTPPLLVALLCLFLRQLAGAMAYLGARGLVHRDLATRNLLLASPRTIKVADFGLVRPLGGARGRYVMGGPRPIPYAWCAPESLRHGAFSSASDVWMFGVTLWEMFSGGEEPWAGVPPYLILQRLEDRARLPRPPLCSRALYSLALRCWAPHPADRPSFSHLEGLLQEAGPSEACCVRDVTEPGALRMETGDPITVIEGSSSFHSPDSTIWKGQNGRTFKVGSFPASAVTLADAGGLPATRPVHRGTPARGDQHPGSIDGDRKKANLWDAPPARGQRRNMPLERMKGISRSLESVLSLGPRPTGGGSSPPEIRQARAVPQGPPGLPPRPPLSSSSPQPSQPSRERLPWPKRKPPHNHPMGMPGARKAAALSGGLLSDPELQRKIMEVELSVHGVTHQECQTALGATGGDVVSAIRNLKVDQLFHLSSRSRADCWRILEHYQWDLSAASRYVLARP

[12] = target: Fibroblast growth factor receptor 1 (Homo sapiens, UniProt P11362)
[13] = target: Serine/threonine-protein kinase B-raf (Homo sapiens, UniProt P15056)
Note: in the data inactive means no Kd found up to 30 µM.

Chain of Serine/threonine-protein kinase B-raf (P15056 whole entry): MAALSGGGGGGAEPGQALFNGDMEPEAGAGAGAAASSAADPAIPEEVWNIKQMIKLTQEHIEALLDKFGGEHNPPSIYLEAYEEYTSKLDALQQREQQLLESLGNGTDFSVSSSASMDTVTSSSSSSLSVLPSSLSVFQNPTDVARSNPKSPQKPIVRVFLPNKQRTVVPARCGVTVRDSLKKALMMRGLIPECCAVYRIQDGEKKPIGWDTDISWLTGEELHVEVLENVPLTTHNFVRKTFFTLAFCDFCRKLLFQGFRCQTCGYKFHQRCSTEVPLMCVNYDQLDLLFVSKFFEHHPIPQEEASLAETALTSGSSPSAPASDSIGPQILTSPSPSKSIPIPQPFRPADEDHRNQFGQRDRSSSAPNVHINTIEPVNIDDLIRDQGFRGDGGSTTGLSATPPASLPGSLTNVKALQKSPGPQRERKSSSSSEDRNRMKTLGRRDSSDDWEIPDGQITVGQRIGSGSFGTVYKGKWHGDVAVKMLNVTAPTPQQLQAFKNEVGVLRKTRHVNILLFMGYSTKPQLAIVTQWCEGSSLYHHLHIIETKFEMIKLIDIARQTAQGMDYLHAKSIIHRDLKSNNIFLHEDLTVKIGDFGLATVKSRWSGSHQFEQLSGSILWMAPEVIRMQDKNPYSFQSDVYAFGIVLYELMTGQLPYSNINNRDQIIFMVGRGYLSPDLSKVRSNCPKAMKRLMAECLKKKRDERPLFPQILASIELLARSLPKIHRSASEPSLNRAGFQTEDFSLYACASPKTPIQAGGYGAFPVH
Chain of Mitogen-activated protein kinase 3 (P27361 whole entry): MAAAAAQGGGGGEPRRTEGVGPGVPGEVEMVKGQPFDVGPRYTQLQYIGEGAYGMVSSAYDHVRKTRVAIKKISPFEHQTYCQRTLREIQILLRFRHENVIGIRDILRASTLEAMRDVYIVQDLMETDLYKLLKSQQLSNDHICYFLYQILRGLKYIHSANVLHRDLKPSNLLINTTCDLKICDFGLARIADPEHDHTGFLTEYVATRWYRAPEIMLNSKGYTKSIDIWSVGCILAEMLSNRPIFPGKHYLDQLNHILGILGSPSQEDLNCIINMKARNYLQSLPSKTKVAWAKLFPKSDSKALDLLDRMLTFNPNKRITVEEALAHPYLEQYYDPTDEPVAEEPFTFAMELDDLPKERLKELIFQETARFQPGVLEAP
Chain of Protein kinase C beta type (P05771 whole entry): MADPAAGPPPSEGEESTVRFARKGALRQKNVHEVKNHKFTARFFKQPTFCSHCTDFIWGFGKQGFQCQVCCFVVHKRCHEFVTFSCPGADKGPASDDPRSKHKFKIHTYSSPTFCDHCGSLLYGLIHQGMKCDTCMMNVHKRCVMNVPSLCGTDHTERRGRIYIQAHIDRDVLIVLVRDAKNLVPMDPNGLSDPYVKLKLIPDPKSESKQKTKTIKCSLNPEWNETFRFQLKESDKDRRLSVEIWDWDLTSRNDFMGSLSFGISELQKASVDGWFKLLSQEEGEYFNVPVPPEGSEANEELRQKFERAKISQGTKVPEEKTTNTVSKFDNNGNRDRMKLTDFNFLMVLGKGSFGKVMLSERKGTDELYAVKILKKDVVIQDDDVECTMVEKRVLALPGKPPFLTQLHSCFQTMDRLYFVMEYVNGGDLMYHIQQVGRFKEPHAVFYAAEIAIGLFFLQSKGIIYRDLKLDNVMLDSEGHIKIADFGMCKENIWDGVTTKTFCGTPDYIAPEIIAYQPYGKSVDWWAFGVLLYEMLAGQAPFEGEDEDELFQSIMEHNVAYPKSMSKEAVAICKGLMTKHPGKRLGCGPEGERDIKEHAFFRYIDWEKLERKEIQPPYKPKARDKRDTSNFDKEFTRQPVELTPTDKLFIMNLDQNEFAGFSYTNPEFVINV
Chain of Fibroblast growth factor receptor 1 (P11362 whole entry): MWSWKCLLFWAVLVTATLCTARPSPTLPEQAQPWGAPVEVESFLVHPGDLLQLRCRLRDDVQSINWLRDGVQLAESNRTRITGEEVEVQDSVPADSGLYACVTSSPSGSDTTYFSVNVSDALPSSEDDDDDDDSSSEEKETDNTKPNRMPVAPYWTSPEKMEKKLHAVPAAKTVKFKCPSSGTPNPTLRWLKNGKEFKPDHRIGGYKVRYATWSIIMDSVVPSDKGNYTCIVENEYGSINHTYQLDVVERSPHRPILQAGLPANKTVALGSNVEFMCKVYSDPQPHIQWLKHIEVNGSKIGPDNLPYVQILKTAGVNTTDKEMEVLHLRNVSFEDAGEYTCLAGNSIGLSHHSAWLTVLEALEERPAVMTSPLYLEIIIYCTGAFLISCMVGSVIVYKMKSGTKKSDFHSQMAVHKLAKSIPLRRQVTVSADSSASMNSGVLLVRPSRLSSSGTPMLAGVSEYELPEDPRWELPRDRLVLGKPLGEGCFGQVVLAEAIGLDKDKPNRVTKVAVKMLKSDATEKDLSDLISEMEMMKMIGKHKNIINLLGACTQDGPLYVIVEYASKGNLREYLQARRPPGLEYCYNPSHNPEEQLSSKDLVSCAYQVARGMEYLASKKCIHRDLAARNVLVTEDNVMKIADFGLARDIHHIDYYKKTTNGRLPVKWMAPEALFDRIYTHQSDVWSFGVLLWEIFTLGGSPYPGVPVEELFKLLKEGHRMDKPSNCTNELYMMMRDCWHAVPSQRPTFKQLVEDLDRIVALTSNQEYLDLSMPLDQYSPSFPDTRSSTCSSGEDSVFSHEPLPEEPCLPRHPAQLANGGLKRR
Chain of Ephrin type-A receptor 2 (P29317 whole entry): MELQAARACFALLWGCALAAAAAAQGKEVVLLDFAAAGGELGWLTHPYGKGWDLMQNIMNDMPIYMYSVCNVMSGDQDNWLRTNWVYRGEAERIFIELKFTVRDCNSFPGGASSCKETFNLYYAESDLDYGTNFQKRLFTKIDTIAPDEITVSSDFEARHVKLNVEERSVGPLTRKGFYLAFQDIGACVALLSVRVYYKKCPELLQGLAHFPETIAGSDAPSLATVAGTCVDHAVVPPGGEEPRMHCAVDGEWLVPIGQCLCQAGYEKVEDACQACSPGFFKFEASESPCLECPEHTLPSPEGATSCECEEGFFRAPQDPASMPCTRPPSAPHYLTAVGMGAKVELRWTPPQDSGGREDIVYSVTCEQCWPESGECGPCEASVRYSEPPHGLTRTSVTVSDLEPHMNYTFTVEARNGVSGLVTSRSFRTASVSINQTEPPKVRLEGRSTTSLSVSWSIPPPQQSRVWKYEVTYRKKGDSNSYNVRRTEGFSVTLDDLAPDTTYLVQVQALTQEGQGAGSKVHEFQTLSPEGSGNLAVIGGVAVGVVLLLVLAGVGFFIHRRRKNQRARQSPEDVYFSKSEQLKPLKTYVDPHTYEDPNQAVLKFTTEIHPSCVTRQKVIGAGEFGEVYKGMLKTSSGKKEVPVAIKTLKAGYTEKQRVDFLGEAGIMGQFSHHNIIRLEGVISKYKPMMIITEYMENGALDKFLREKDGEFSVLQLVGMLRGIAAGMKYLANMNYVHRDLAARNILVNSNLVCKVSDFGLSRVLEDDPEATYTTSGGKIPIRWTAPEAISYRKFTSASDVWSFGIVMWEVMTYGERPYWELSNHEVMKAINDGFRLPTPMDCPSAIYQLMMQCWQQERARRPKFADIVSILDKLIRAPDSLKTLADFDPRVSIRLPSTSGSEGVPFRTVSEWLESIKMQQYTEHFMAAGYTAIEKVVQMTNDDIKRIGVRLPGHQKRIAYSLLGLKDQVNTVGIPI
Chain of Casein kinase I isoform alpha (P48729 whole entry, canonical isoform): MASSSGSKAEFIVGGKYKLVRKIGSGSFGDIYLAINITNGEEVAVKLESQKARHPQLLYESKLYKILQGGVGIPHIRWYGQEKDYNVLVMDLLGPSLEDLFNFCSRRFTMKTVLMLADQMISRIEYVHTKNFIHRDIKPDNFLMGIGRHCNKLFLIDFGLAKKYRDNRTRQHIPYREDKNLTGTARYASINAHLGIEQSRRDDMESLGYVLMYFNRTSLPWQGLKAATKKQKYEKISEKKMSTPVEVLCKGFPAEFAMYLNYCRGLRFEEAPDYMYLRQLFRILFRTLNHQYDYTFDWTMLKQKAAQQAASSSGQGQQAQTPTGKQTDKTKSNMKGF
Chain of Tyrosine-protein kinase BTK (Q06187 whole entry): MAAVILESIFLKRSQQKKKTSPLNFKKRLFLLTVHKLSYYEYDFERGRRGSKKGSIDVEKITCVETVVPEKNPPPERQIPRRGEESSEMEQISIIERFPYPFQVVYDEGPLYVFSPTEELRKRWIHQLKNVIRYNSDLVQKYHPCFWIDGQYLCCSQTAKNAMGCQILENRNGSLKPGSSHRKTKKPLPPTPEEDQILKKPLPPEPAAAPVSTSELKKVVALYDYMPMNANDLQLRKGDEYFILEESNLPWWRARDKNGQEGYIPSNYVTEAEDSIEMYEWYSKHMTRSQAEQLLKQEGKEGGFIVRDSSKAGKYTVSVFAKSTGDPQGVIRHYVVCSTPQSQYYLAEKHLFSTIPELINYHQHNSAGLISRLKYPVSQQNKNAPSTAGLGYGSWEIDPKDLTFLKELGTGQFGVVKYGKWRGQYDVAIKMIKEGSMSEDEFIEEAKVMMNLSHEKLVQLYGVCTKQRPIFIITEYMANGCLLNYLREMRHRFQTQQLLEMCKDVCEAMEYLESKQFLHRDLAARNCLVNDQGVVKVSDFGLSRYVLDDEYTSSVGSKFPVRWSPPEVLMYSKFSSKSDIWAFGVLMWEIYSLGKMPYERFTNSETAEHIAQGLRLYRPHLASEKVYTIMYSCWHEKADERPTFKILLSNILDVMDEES

Kd [1] | Kd [2] | Kd [3] | Kd [4] | Kd [5] | Kd [6] | Kd [7] | Kd [8] | Kd [9] | Kd [10] | Kd [11] | Kd [12] | Kd [13] | Compound
> 30 µM (inactive) | > 30 µM (inactive) | > 30 µM (inactive) | > 30 µM (inactive) | > 30 µM (inactive) | > 30 µM (inactive) | > 30 µM (inactive) | > 30 µM (inactive) | > 30 µM (inactive) | > 30 µM (inactive) | > 30 µM (inactive) | > 30 µM (inactive) | > 30 µM (inactive) | CN(C)C(=O)c1cc2cnc(Nc3ccc(N4CCNCC4)cn3)nc2n1C1CCCC1 [RIBOCICLIB]
> 30 µM (inactive) | > 30 µM (inactive) | > 30 µM (inactive) | > 30 µM (inactive) | > 30 µM (inactive) | > 30 µM (inactive) | > 30 µM (inactive) | > 30 µM (inactive) | 7.24 µM (active) | > 30 µM (inactive) | 0.888 µM (active) | > 30 µM (inactive) | > 30 µM (inactive) | C1=C/COCc2cc(ccc2OCCN2CCCC2)Nc2nccc(n2)-c2cccc(c2)COC/1 [PACRITINIB]
> 30 µM (inactive) | > 30 µM (inactive) | > 30 µM (inactive) | 0.32 µM (active) | > 30 µM (inactive) | > 30 µM (inactive) | > 30 µM (inactive) | > 30 µM (inactive) | > 30 µM (inactive) | > 30 µM (inactive) | > 30 µM (inactive) | > 30 µM (inactive) | > 30 µM (inactive) | Cn1cc(-c2ccc3nnc(C(F)(F)c4ccc5ncccc5c4)n3n2)cn1 [JNJ-38877605]

Further lines, the compound ahead of its results:

Compound | Kd [1] | Kd [2] | Kd [3] | Kd [4] | Kd [5] | Kd [6] | Kd [7] | Kd [8] | Kd [9] | Kd [10] | Kd [11] | Kd [12] | Kd [13]
COc1cc(OC)c(/C=C/S(=O)(=O)Cc2ccc(OC)c(NCC(=O)O)c2)c(OC)c1 [RIGOSERTIB] | > 30 µM (inactive) | > 30 µM (inactive) | > 30 µM (inactive) | > 30 µM (inactive) | > 30 µM (inactive) | > 30 µM (inactive) | > 30 µM (inactive) | > 30 µM (inactive) | > 30 µM (inactive) | > 30 µM (inactive) | > 30 µM (inactive) | > 30 µM (inactive) | > 30 µM (inactive)
COCCNCc1ccc(-c2cc3nccc(Oc4ccc(NC(=S)NC(=O)Cc5ccc(F)cc5)cc4F)c3s2)nc1 [GLESATINIB] | > 30 µM (inactive) | > 30 µM (inactive) | > 30 µM (inactive) | > 30 µM (inactive) | > 30 µM (inactive) | > 30 µM (inactive) | > 30 µM (inactive) | > 30 µM (inactive) | > 30 µM (inactive) | > 30 µM (inactive) | 1.49 µM (active) | > 30 µM (inactive) | > 30 µM (inactive)
N[C@@H]1CCCN(c2c(/C=C3\SC(=O)NC3=O)cccc2-c2ccccc2)C1 | > 30 µM (inactive) | > 30 µM (inactive) | > 30 µM (inactive) | > 30 µM (inactive) | > 30 µM (inactive) | > 30 µM (inactive) | > 30 µM (inactive) | > 30 µM (inactive) | > 30 µM (inactive) | > 30 µM (inactive) | > 30 µM (inactive) | > 30 µM (inactive) | > 30 µM (inactive)
CNC(=O)CN1CCC(Oc2cc3c(Nc4cccc(Cl)c4F)ncnc3cc2OC)CC1 [SAPITINIB] | > 30 µM (inactive) | > 30 µM (inactive) | > 30 µM (inactive) | > 30 µM (inactive) | > 30 µM (inactive) | > 30 µM (inactive) | 8.2 µM | > 30 µM (inactive) | > 30 µM (inactive) | > 30 µM (inactive) | > 30 µM (inactive) | > 30 µM (inactive) | > 30 µM (inactive)
Cn1ncc(Cl)c1-c1cc(C(=O)N[C@H](CN)Cc2cccc(F)c2)sc1Cl [AFURESERTIB] | > 30 µM (inactive) | > 30 µM (inactive) | > 30 µM (inactive) | > 30 µM (inactive) | > 30 µM (inactive) | > 30 µM (inactive) | > 30 µM (inactive) | > 30 µM (inactive) | 4.88 µM (active) | > 30 µM (inactive) | > 30 µM (inactive) | > 30 µM (inactive) | > 30 µM (inactive)

Source: ChEMBL document CHEMBL3991601, “The target landscape of clinical kinase drugs” (Science, 2017)
